Source: patent US20230099803A1, “OXAZOLIDINONE FOR TREATMENT OF INFECTIONS WITH MYCOBACTERIUM TUBERCULOSIS” (priority 2017, published 2023)

Tested on: Mycobacterium tuberculosis
Assay type: cell-based
Details: 5x and 10x MIC90 of T145, 5 weeks of incubation

CC(=O)NC[C@H]1CN(c2ccc3c(c2)Oc2ccccc2O3)C(=O)O1 [T145, N-(((S)-3-(dibenzo[b,e][1,4]dioxin-7-yl)-2-oxooxazolidin-5-yl)methyl)acetamide]
frequency of spontaneous mutants that confer resistance: 4.0 × 10^-8
